Read-outs that look alike come from different tables or passages of the source.
How the values were obtained:
Ps. aeruginosa AK 109 = assay: in vitro antibacterial activity, agar plate dilution method (MIC); format: cell-based, Pseudomonas aeruginosa; conditions: Pseudomonas aeruginosa, AK109, 16 h
How it was run: (§1)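 Inoculum 10^6 CFU/ml; medium Mueller Hinton agar with graded antibiotic; 37° C./16 h; endpoint MIC (μg/ml).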

Ps. aeruginosa IF03445 = assay: as above; format: cell-based, Pseudomonas aeruginosa; conditions: Pseudomonas aeruginosa, IF03445, 16 h, read-out: Minimum Inhibitory Concentration (MIC), Ps. aeruginosa IF03445; 10^6 CFU/ml
How it was run: as §1

Ps. aeruginosa AKR17 = assay: as above; format: cell-based, Pseudomonas aeruginosa; conditions: Pseudomonas aeruginosa
How it was run: as §1

E. coli CSH(RE45) = assay: microbe, parasite or virus in culture; format: cell-based; conditions: Escherichia coli, 16 h, read-out: Minimum Inhibitory Concentration (MIC), *E. coli CSH(RE45), lactamase-producing strain; 10^6 CFU/ml
How it was run: as §1

E. coli CSH2 (RK1) = assay: microbe, parasite or virus in culture; format: cell-based; conditions: Escherichia coli, 16 h, read-out: Minimum Inhibitory Concentration (MIC), *E. coli CSH2 (RK1), lactamase-producing strain; 10^6 CFU/ml
How it was run: as §1

Ps. cepacia 23 = assay: in vitro antibacterial activity, agar plate dilution method (MIC); format: cell-based, Pseudomonas cepacia; conditions: Burkholderia cepacia, 16 h; Ps. cepacia 23; 10^6 CFU/ml; read-out: Minimum Inhibitory Concentration (MIC)
How it was run: as §1

S. marcescens No. 16-2 = assay: as above; format: cell-based; conditions: Serratia marcescens, NO.162, 16 h
How it was run: as §1

P. vulgaris HX-19 = assay: as above; format: cell-based; conditions: Proteus vulgaris, HX19, 16 h, read-out: Minimum Inhibitory Concentration (MIC)
How it was run: as §1

E. cloacae 963 = assay: as above; format: cell-based; conditions: 10^6 CFU/ml
How it was run: as §1

K. pneumoniae PCI-602 = assay: as above; format: cell-based; conditions: Klebsiella pneumoniae, PCI602, 16 h, 10^6 CFU/ml
How it was run: as §1

K. oxytoca GN10650 = assay: as above; format: cell-based; conditions: Klebsiella oxytoca, GN10650, 16 h, read-out: Minimum Inhibitory Concentration (MIC), *K. oxytoca GN10650, lactamase-producing strain; 10^6 CFU/ml
How it was run: as §1

M. morganii GN5407 = assay: as above; format: cell-based; conditions: Morganella morganii, GN5407, 16 h, read-out: Minimum Inhibitory Concentration (MIC), *M. morganii GN5407, lactamase-producing strain; 10^6 CFU/ml
How it was run: as §1

S. aureus 209P NIHJ-JC1 = assay: as above; format: cell-based; conditions: Staphylococcus aureus, 16 h, read-out: Minimum Inhibitory Concentration (MIC)
How it was run: as §1

P. vulgaris No. 33 = assay: as above; format: cell-based; conditions: Proteus vulgaris, NO.33, 16 h, read-out: Minimum Inhibitory Concentration (MIC), *P. vulgaris No. 33, lactamase-producing strain; 10^6 CFU/ml
How it was run: as §1

E. cloacae Nek 39 = assay: as above; format: cell-based; conditions: Enterobacter cloacae, NEK39, 16 h, read-out: Minimum Inhibitory Concentration (MIC), *E. cloacae Nek 39, lactamase-producing strain; 10^6 CFU/ml
How it was run: as §1

K. pneumoniae No. 42 = assay: as above; format: cell-based; conditions: Klebsiella pneumoniae, NO.42, 16 h, read-out: Minimum Inhibitory Concentration (MIC), *K. pneumoniae No. 42, lactamase-producing strain; 10^6 CFU/ml
How it was run: as §1

E. coli GN5482 = assay: as above; format: cell-based; conditions: Escherichia coli, GN5482, 16 h
How it was run: as §1

E. coli NIHJ JC2 = assay: as above; format: cell-based; conditions: Escherichia coli, NIHJJC2, 16 h, read-out: Minimum Inhibitory Concentration (MIC), E. coli NIHJ JC2, 10^6 CFU/ml, 37° C.
How it was run: as §1

S. marcescens IAM 1184 = assay: as above; format: cell-based; conditions: Serratia marcescens, IAM1184, 16 h, S. marcescens IAM 1184; 10^6 CFU/ml; read-out: Minimum Inhibitory Concentration (MIC)
How it was run: as §1

A. calcoaceticus No. 4 = assay: as above; format: cell-based, Acinetobacter calcoaceticus; conditions: Acinetobacter calcoaceticus, NO.4, 16 h, 10^6 CFU/ml
How it was run: as §1

[1] = read-out: Minimum Inhibitory Concentration (MIC)
[2] = Enterobacter cloacae, 963, 16 h, read-out: Minimum Inhibitory Concentration (MIC), E. cloacae 963
[3] = read-out: Minimum Inhibitory Concentration (MIC), K. pneumoniae PCI-602
[4] = read-out: Minimum Inhibitory Concentration (MIC), *E. coli GN5482, lactamase-producing strain, 10^6 CFU/ml
[5] = A. calcoaceticus No. 4, read-out: Minimum Inhibitory Concentration (MIC)
[6] = AKR17, 16 h, read-out: Minimum Inhibitory Concentration (MIC)
[7] = Enterobacter cloacae, 16 h, E. cloacae 963, read-out: Minimum Inhibitory Concentration (MIC)
[8] = S. aureus 209P NIHJ-JC1, 10^6 CFU/ml, 37° C., 16 hours
[9] = read-out: Minimum Inhibitory Concentration (MIC), A. calcoaceticus No. 4
[10] = read-out: Minimum Inhibitory Concentration (MIC), Ps. aeruginosa AK 109, 10^6 CFU/ml
[11] = read-out: Minimum Inhibitory Concentration (MIC), *S. marcescens No. 16-2, lactamase-producing strain, 10^6 CFU/ml
[12] = K. pneumoniae PCI-602, read-out: Minimum Inhibitory Concentration (MIC)

| SMILES | MIC (Ps. aeruginosa IF03445) | MIC (E. coli CSH(RE45)) | MIC (E. coli CSH2 (RK1)) | MIC (Ps. cepacia 23) | MIC (S. marcescens No. 16-2; [1]) | MIC (P. vulgaris HX-19; P. vulgaris HX-19, 10^6 CFU/ml) | MIC (E. cloacae 963; [2]) | MIC (K. pneumoniae PCI-602; [3]) | MIC (K. oxytoca GN10650) | MIC (M. morganii GN5407) | MIC (P. vulgaris No. 33) | MIC (E. cloacae Nek 39) | MIC (K. pneumoniae No. 42) | MIC (E. coli GN5482; [4]) | MIC (E. coli NIHJ JC2) | MIC (S. marcescens IAM 1184) | MIC (Ps. aeruginosa AKR17; [6]) | MIC (S. aureus 209P NIHJ-JC1; [8]) | MIC (A. calcoaceticus No. 4; [9]) | MIC (Ps. aeruginosa AK 109; [10]) | further results |
| --- | --- | --- | --- | --- | --- | --- | --- | --- | --- | --- | --- | --- | --- | --- | --- | --- | --- | --- | --- | --- | --- |
| Nc1nc(/C(=N/OC(C(=O)O)c2ccc(O)c(O)c2)C(=O)N[C@@H]2C(=O)N3C(C(=O)O)=C(CSc4ncc(-c5ccc(O)c(O)c5)o4)CS[C@H]23)cs1 (stereo partly drawn) [Ex. 65, disodium 7β-(2-(2-aminothiazol-4-yl)-2-[(α-carboxylate-3,4-dihydroxybenzyl)oxyiminol]-acetamido}-3-[5-(3,4-dihydroxyphenyl)oxazol-2-yl]-thiomethyl-3-cephem-4-carboxylate] | 1.56 µg/mL | 0.05 µg/mL | 0.05 µg/mL | < 0.006 µg/mL | 12.5 µg/mL | 0.1 µg/mL | 0.78 µg/mL | < 0.006 µg/mL | 0.2 µg/mL | 0.2 µg/mL | 0.1 µg/mL | 0.78 µg/mL | 0.2 µg/mL | 6.25 µg/mL | 1.56 µg/mL | 0.2 µg/mL |  |  |  |  | MIC (Ps. aeruginosa AK 109; [1]): 0.39 µg/mL; MIC (Ps. aeruginosa AKR17; 16 h, Ps. aeruginosa AKR17, 10^6 CFU/ml, read-out: Minimum Inhibitory Concentration (MIC)): 0.2 µg/mL; MIC (S. aureus 209P NIHJ-JC1): 3.12 µg/mL; MIC (A. calcoaceticus No. 4; [5]): 0.05 µg/mL |
| Nc1nc(/C(=N/OC2(C(=O)O)CC2)C(=O)N[C@@H]2C(=O)N3C(C(=O)O)=C(CSc4ncc(-c5ccc(O)c(O)c5)o4)CS[C@H]23)cs1 [Ex. 66, disodium 7β-[2-(2-aminothiazol-4-yl)-2-(1-carboxylate-1-cyclopropoxyimino)acetamido]-3-[5-(3,4-dihydroxyphenyl)oxazol-2-yl]thiomethyl-3-cephem-4-carboxylate] | 0.78 µg/mL | 0.05 µg/mL | 0.0125 µg/mL | < 0.006 µg/mL | 3.12 µg/mL |  |  | < 0.006 µg/mL | 0.1 µg/mL | 0.1 µg/mL | 0.025 µg/mL | 0.1 µg/mL | 0.1 µg/mL | 1.56 µg/mL | 0.78 µg/mL | 0.05 µg/mL | 3.12 µg/mL | 25 µg/mL | 0.1 µg/mL |  | MIC (Ps. aeruginosa AK 109; [1]): 0.39 µg/mL; MIC (P. vulgaris HX-19): 0.0125 µg/mL; MIC (E. cloacae 963; [7]): 0.2 µg/mL |
| CC(C)(ON=C(C(=O)NC1C(=O)N2C(C(=O)O)=C(CSc3nc(-c4ccc(O)c(O)c4)c(CC(=O)O)s3)CSC12)c1csc(N)n1)C(=O)O (stereo not drawn) [Example 59 (I), trisodium 7β-[2-(2-aminothiazol-4-yl)-2-(1-carboxylate-1-methylethoxyimino)acetamido]-3-[4-(3,4-dihydroxyphenyl)-5-carboxylatemethylthiazol-2yl]thiomethyl-3-cephem-4-carboxylate] | 1.56 µg/mL | 0.05 µg/mL | 0.025 µg/mL | < 0.006 µg/mL |  | 0.025 µg/mL | 0.39 µg/mL |  | 0.1 µg/mL | 0.1 µg/mL | 0.1 µg/mL | 0.2 µg/mL | 0.2 µg/mL | 1.56 µg/mL | 1.56 µg/mL | 0.2 µg/mL |  | 100 µg/mL |  | 1.56 µg/mL | MIC (Ps. aeruginosa AKR17; AKR17, 16 h, read-out: Minimum Inhibitory Concentration (MIC), Ps. aeruginosa AKR17, 10^6 CFU/ml): 1.56 µg/mL; MIC (S. marcescens No. 16-2; [11]): 1.56 µg/mL; MIC (K. pneumoniae PCI-602; [12]): 0.0125 µg/mL; MIC (A. calcoaceticus No. 4; [5]): 0.2 µg/mL |
| Nc1nc(C(=NOC2(C(=O)O)CC2)C(=O)NC2C(=O)N3C(C(=O)O)=C(CSc4nc(-c5ccc(O)c(O)c5)c(CC(=O)O)s4)CSC23)cs1 (stereo not drawn) [Example 60 (I), trisodium 7β-[2-(2-aminothiazol-4-yl)-2-(1-carboxylate-1-cyclopropoxyimino)acetamido]-3-[4-(3,4-dihydroxyphenyl)-5-carboxylatemethylthiazol-2-yl]thiomethyl-3-cephem-4-carboxylate] | 1.56 µg/mL | 3.12 µg/mL | 0.05 µg/mL | 0.0125 µg/mL | 3.12 µg/mL | 0.025 µg/mL | 0.78 µg/mL |  | 0.39 µg/mL | 0.39 µg/mL | 0.1 µg/mL | 0.39 µg/mL | 0.39 µg/mL |  | 1.56 µg/mL | 0.2 µg/mL | 3.12 µg/mL | 50 µg/mL | 0.78 µg/mL | 1.56 µg/mL | MIC (K. pneumoniae PCI-602; [12]): 0.025 µg/mL; MIC (E. coli GN5482; [1]): 3.12 µg/mL |
| CC(=O)Oc1ccc(-c2nc(SCC3=C(C(=O)O)N4C(=O)C(NC(=O)C(=NOC5(C(=O)O)CC5)c5csc(N)n5)C4SC3)sc2CC(=O)O)cc1OC(C)=O (stereo not shown) [Example 60 (II), trisodium 3-[4-(3,4-diacetoxyphenyl)-5-carboxylate-methylthiazol-2-yl]thiomethyl-78-[2-(2-aminothiazol-4-yl)-2-(1-carboxylate-1-cyclopropoxyimino)acetamido]-3-cephem-4-carboxylate] | 0.78 µg/mL | 3.12 µg/mL | 0.0125 µg/mL | < 0.006 µg/mL |  | < 0.006 µg/mL |  | < 0.006 µg/mL | 0.1 µg/mL | 0.1 µg/mL | 0.025 µg/mL | 0.2 µg/mL | 0.1 µg/mL | 0.78 µg/mL | 0.78 µg/mL | 0.05 µg/mL | 3.12 µg/mL | 25 µg/mL | 0.1 µg/mL | 1.56 µg/mL | MIC (S. marcescens No. 16-2; [11]): 0.78 µg/mL; MIC (E. cloacae 963; [7]): 0.2 µg/mL |

Reference: patent publication US5061794A, “Cephalosporin derivatives, and antibacterial agents” (priority 1986, dated 1991)
